Where a name gives a salt, the structure may show the parent alone.
What was measured:
[1] = molecular target: T1, human factor XIa (Homo sapiens, UniProt P03951); experiment: Measurement of FXIa inhibition (fluorogenic peptide substrate Boc-Glu(OBzl)-Ala-Arg-AMC); type: biochemical; details: factor XIa from Kordia 0.45 nM; 15 min preincubation; 30 min at 22° C.; fluorescence of AMC
T1 construct: purchased Kordia
Method: a.1) Measurement of FXIa Inhibition
The factor XIa inhibition of the substances according to the invention is determined using a biochemical test system which utilizes the reaction of a peptidic factor XIa substrate to determine the enzymatic activity of human factor XIa. Here, factor XIa cleaves from the peptic factor XIa substrate the C-terminal aminomethylcoumarin (AMC), the fluorescence of which is measured. The determinations are carried out in microtitre plates.
Test substances are dissolved in dimethyl sulphoxide and serially diluted in dimethyl sulphoxide (3000 μM to 0.0078 μM; resulting final concentrations in the test: 50 μM to 0.00013 μM). In each case 1 μl of the diluted substance solutions is placed into the wells of white microtitre plates from Greiner (384 wells). Subsequently, the following are added successively: 20 μl of assay buffer (50 mmol/l Tris buffer pH 7.4; 100 mmol/l sodium chloride; 5 mmol/l calcium chloride; 0.1% bovine serum albumin) and 20 μl of factor XIa from Kordia (0.45 nM in assay buffer). After 15 min of incubation, the enzyme reaction is started by addition of 20 μl of the factor XIa substrate Boc-Glu(OBzl)-Ala-Arg-AMC dissolved in assay buffer (10 μM in assay buffer) from Bachem, the mixture is incubated at room temperature (22° C.) for 30 min and fluorescence is then measured (excitation: 360 nm, emission: 460 nm). The measured emissions of the test batches with test substance are compared to those of control batches without test substance (only dimethyl sulphoxide instead of test substance in dimethyl sulphoxide), and IC50 values are calculated from the concentration/activity relationships.

[2] = test system: plasma; experiment: Determination of anticoagulatory activity: activated partial thromboplastin time (aPTT) in plasma; details: in vitro in human and animal plasma (species of Table B not stated); C.K. Prest kit; 37° C., 3 minutes incubation
Method: a.4) Determination of Anticoagulatory Activity
The anticoagulatory activity of the test substances is determined in vitro in human and animal plasma (for example mouse, rat, rabbit, pig and dog plasma). To this end, blood is drawn off in a mixing ratio of sodium citrate/blood of 1:9 using a 0.11 molar sodium citrate solution as receiver. Immediately after the blood has been drawn off, it is mixed thoroughly and centrifuged at about 4000 g for 15 minutes. The supernatant is pipetted off.
The activated partial thromboplastin time (aPTT) is determined in the presence of varying concentrations of test substance or the corresponding solvent using a commercial test kit (C.K. Prest from Diagnostica Stago). The test compounds are incubated with the plasma and the PTT reagent (cephalin, kaolin) at 37° C. for 3 minutes. Coagulation is then started by addition of a 25 mM aqueous calcium chloride solution, and the time when coagulation occurs is determined. The concentration of test substance which brings about a 1.5-fold extension of the aPTT is determined.

T1 sequence (P03951 388-625 limits assumed): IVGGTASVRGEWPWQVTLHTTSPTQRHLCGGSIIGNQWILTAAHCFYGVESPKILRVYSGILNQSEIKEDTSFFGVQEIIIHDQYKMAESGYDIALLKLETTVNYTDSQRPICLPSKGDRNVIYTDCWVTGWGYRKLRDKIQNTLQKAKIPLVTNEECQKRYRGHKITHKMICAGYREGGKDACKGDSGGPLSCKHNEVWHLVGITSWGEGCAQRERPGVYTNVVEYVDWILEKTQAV
T1 sequence (P03951 19-387 partner limits assumed): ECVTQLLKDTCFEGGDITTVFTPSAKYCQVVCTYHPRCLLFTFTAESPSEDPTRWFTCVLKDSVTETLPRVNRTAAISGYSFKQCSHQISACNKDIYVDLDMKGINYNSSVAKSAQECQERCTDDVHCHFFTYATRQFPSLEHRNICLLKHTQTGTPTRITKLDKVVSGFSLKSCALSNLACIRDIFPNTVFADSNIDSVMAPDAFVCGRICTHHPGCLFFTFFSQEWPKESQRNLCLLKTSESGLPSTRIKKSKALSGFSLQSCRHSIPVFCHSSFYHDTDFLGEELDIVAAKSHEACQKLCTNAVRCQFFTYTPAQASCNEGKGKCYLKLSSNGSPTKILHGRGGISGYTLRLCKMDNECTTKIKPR

Compound | IC50 [1] [nM] | aPTT (concentration of test substance which brings about a 1.5-fold extension of the aPTT) [2] [µmol/L]
NC[C@H]1CC[C@H](C(=O)N[C@@H](Cc2ccc(-c3ccccc3S(=O)(=O)N3CCOCC3)cc2)C(=O)Nc2ccc(-c3nn[nH]n3)cc2)CC1 [Example 1, trans-4-(Aminomethyl)-N-[(2S)-3-[2′-(morpholin-4-ylsulphonyl)biphenyl-4-yl]-1-oxo-1-{[4-(2H-tetrazol-5-yl)phenyl]amino}propan-2-yl]cyclohexanecarboxamide hydrochloride] | 1.9 | 0.17
NC[C@H]1CC[C@H](C(=O)N[C@@H](Cc2ccc(-c3ccccc3NC(=O)C3CCNCC3)cc2)C(=O)Nc2ccc(-c3nnn[nH]3)cc2)CC1 [Example 12, N-{4′-[(2S)-2-({[trans-4-(Aminomethyl)cyclohexyl]carbonyl}amino)-3-oxo-3-{[4-(1H-tetrazol-5-yl)phenyl]amino}propyl]biphenyl-2-yl}piperidine-4-carboxamide hydrochloride] | 8.9 | 0.29
NC[C@H]1CC[C@H](C(=O)N[C@@H](Cc2ccc(-c3ccccc3C(N)=O)cc2)C(=O)Nc2ccc(-c3nc(C(F)(F)C(F)(F)C(=O)O)n[nH]3)cc2)CC1 [Example 15, 3-[5-(4-{[(2S)-2-({[trans-4-(Aminomethyl)cyclohexyl]carbonyl}amino)-3-(2′-carbamoylbiphenyl-4-yl)propanoyl]amino}phenyl)-1H-1,2,4-triazol-3-yl]-2,2,3,3-tetrafluoropropanoic acid hydrochloride] | 12 | 0.23
NC[C@H]1CC[C@H](C(=O)N[C@@H](Cc2ccc(-c3ccccc3C(=O)NC3CCNCC3)cc2)C(=O)Nc2ccc(-c3nn[nH]n3)cc2)CC1 [Example 6, 4′-[(2S)-2-({[trans-4-(Aminomethyl)cyclohexyl]carbonyl}amino)-3-oxo-3-{[4-(2H-tetrazol-5-yl)phenyl]amino}propyl]-N-(piperidin-4-yl)biphenyl-2-carboxamide hydrochloride] | 39 | 0.57
NC[C@H]1CC[C@H](C(=O)N[C@@H](Cc2ccc(-c3ccccc3CN3CCNCC3)cc2)C(=O)Nc2ccc(-c3nnn[nH]3)cc2)CC1 [Example 16, trans-4-(Aminomethyl)-N-[(2S)-1-oxo-3-[2′-(piperazin-1-ylmethyl)biphenyl-4-yl]-1-{[4-(1H-tetrazol-5-yl)phenyl]amino}propan-2-yl]cyclohexanecarboxamide hydrochloride] | 6.2 | 0.08
NC[C@H]1CC[C@H](C(=O)N[C@@H](Cc2ccc(-c3ccccc3N)cc2)C(=O)Nc2ccc(-c3nn[nH]n3)cc2)CC1 [Example 8, trans-N-[(2S)-3-(2′-Aminobiphenyl-4-yl)-1-oxo-1-{[4-(2H-tetrazol-5-yl)phenyl]amino}propan-2-yl]-4-(aminomethyl)cyclohexanecarboxamide hydrochloride] | 5.5 | 0.24
NC[C@H]1CC[C@H](C(=O)N[C@@H](Cc2ccc(-c3ccccc3CO)cc2)C(=O)Nc2ccc(-c3nn[nH]n3)cc2)CC1 [Example 14, trans-4-(Aminomethyl)-N-[(2S)-3-[2′-(hydroxymethyl)biphenyl-4-yl]-1-oxo-1-{[4-(2H-tetrazol-5-yl)phenyl]amino}propan-2-yl]cyclohexanecarboxamide hydrochloride] | 4.2 | 0.31
NC[C@H]1CC[C@H](C(=O)N[C@@H](Cc2ccc(-c3ccccc3NC(=O)C3CCOCC3)cc2)C(=O)Nc2ccc(-c3nn[nH]n3)cc2)CC1 [Example 11, N-{4′-[(2S)-2-({[trans-4-(Aminomethyl)cyclohexyl]carbonyl}amino)-3-oxo-3-{[4-(2H-tetrazol-5-yl)phenyl]amino}propyl]biphenyl-2-yl}tetrahydro-2H-pyran-4-carboxamide hydrochloride] | 3 | 0.16
CCN(CC)C(=O)c1ccccc1-c1ccc(C[C@H](NC(=O)[C@H]2CC[C@H](CN)CC2)C(=O)Nc2ccc(-c3nn[nH]n3)cc2)cc1 [Example 3, 4′-[(2S)-2-({[trans-4-(Aminomethyl)cyclohexyl]carbonyl}amino)-3-oxo-3-{[4-(2H-tetrazol-5-yl)phenyl]amino}propyl]-N,N-diethylbiphenyl-2-carboxamide hydrochloride] | 0.7 | 0.12
CN(C)CC(=O)Nc1ccccc1-c1ccc(C[C@H](NC(=O)[C@H]2CC[C@H](CN)CC2)C(=O)Nc2ccc(-c3nn[nH]n3)cc2)cc1 [Example 10, trans-4-(Aminomethyl)-N-[(2S)-3-(2′-{[(dimethylamino)acetyl]amino}biphenyl-4-yl)-1-oxo-1-{[4-(2H-tetrazol-5-yl)phenyl]amino}propan-2-yl]cyclohexanecarboxamide hydrochloride] | 7.2 | 0.23
CNC(=O)c1ccccc1-c1ccc(C[C@H](NC(=O)[C@H]2CC[C@H](CN)CC2)C(=O)Nc2ccc(-c3nn[nH]n3)cc2)cc1 [Example 7, 4′-[(2S)-2-({[trans-4-(Aminomethyl)cyclohexyl]carbonyl}amino)-3-oxo-3-{[4-(2H-tetrazol-5-yl)phenyl]amino}propyl]-N-methylbiphenyl-2-carboxamide hydrochloride] | 12 | 0.61
NC[C@H]1CC[C@H](C(=O)N[C@@H](Cc2ccc(-c3ccccc3C(=O)N3CCCCC3)cc2)C(=O)Nc2ccc(-c3nn[nH]n3)cc2)CC1 [Example 4, trans-4-(Aminomethyl)-N-[(2S)-1-oxo-3-[2′-(piperidin-1-ylcarbonyl)biphenyl-4-yl]-1-{[4-(2H-tetrazol-5-yl)phenyl]amino}propan-2-yl]cyclohexanecarboxamide hydrochloride] | 1.3 | 0.07
NC[C@H]1CC[C@H](C(=O)N[C@@H](Cc2ccc(-c3ccccc3C(=O)N3CCOCC3)cc2)C(=O)Nc2ccc(-c3nn[nH]n3)cc2)CC1 [Example 2, trans-4-(Aminomethyl)-N-[(2S)-3-[2′-(morpholin-4-ylcarbonyl)biphenyl-4-yl]-1-oxo-1-{[4-(2H-tetrazol-5-yl)phenyl]amino}propan-2-yl]cyclohexanecarboxamide hydrochloride] | 2.8 | 0.03
CC(=O)Nc1ccccc1-c1ccc(C[C@H](NC(=O)[C@H]2CC[C@H](CN)CC2)C(=O)Nc2ccc(-c3nn[nH]n3)cc2)cc1 [Example 13, trans-N-[(2S)-3-(2′-Acetamidobiphenyl-4-yl)-1-oxo-1-{[4-(2H-tetrazol-5-yl)phenyl]amino}propan-2-yl]-4-(aminomethyl)cyclohexanecarboxamide hydrochloride] | 4 | 0.18

Source: US20160237045A1, “SUBSTITUTED PHENYLALANINE DERIVATIVES” (BAYER PHARMA AKTIENGESELLSCHAFT, priority 2013, published 2016)
